Measurements: US20190021380A1 (priority 2014, published 2019)
Where a name gives a salt, the structure may show the parent alone. Read-outs that look alike come from different tables or passages of the source.

Assays:
T1R1/T1R3 receptor [1] = biological target: T1, T1R1/T1R3 receptor (Felis catus, UniProt E3UMS2); test: Example 8: agonist screening of transmembrane compounds on T1R1/T1R3 in HEK293 cells; type: cell-based, cat; settings: for agonist profile assessment: transmembrane compound alone, in words; for T1R1/T1R3 agonist: transmembrane compound tested at 0.01, 0.1 and 1 mM, HEK293 cells expressing T1R1/T1R3, calcium dye and/or luminescent reporter
Protocol: (§1) HEK293 cells that stably express T1R3 and inducibly express T1R1 were exposed to a transmembrane compound. Activation of the T1R1/T1R3 receptor was detected by a change in intracellular calcium levels using a calcium sensitive fluorescent dye and/or a luminescent reporter system. […] A FLIPR® Tetra or a FlexStation® 3 was used for data capture.
Each transmembrane compound was tested at concentrations of 0.01 mM, 0.1 mM, and 1 mM. […] To generate the dose response curves, the transmembrane compound was tested at concentrations of between 0.0001 mM and 1.0 mM in the presence of GMP and Ala.

T1R1/T1R3 receptor [2] = biological target: T1, T1R1/T1R3 receptor; type: cell-based; settings: for EC50 +buffer (alone): compound alone in buffer
Text: HEK293 cells that stably express T1R3 and inducibly express T1R1 were exposed to transmembrane compounds alone or in combination with one or more amino acids and/or one or more nucleotides to activate the umami receptor. Activation of the T1R1/T1R3 receptor was detected by a change in intracellular calcium levels using a calcium sensitive fluorescent dye. Cells that express T1R3 but not T1R1 were used as a control. A FLIPR® Tetra or a FlexStation® 3 was used for data capture.
In each experiment, serial dilutions of up to 10 mM of the transmembrane compound were added to the T1R1/T1R3-expressing cells.

T1R1/T1R3 receptor [3] = biological target: T1, T1R1/T1R3 receptor; test: Example 8: PAM screening of transmembrane compounds with GMP and Ala on T1R1/T1R3 in HEK293 cells; type: cell-based, cat; settings: for PAM profile assessment: in the presence of GMP and Alanine, in words; for T1R1/T1R3 PAM: compound at 0.01, 0.1, 1 mM in combination with GMP+Ala mixtures (T1-T4), PAM if response to the combination is greater than the sum of the responses to compound alone and to GMP+Ala alone
Text: as §1, with “to” for “to a”, “compound alone or in combination with Ala and GMP to activate the umami receptor.” for “compound.”
Dose response curves were generated for each transmembrane compound at concentrations of 0 (buffer only), 0.01, 0.1 and 1 mM, wherein each of the three concentrations of transmembrane compound was tested in combination with 0.03 mM GMP+100 mM Ala (T1); 0.6 mM GMP+10 mM Ala (T2); 0.1 mM GMP+60 mM Ala (T3) and 0.3 mM GMP+60 mM Ala (T4). The T4 mixture was also tested in a 2-fold dilution series (the T4(X) Concentration). In these experiments, the first test concentration was 2× (2 times) the T4 concentration. The subsequent test concentrations were 2-fold dilutions from that (1×, 0.5× etc.). This dilution series was tested with or without the addition of the test compound at a constant 0.3 mM concentration.
Activation of the umami receptor was also determined in the presence of 1 mM GMP+100 mM Ala to generate a “maximum” umami receptor activation level.

[4] = threshold in the presence of 0.2 mM IMP, CNBD = Could not be determined
[5] = in the presence of 0.2 mM IMP, CNBD = Could not be determined

Row | SMILES | Thres +IMP (0.2 mM) (T1R1/T1R3 receptor [2]; [4]) | T1R1/T1R3 agonist (T1R1/T1R3 receptor [1]) | T1R1/T1R3 PAM (T1R1/T1R3 receptor [3]) | further results
1 | O=C1CC(=O)N(Cc2ccccc2)C(=O)N1Cc1ccccc1 [1,3-dibenzylpyrimidine-2,4,6(1H,3H,5H)-trione] | 0.1 mM |  |  | agonist profile assessment (T1R1/T1R3 receptor [1]): agonist activity
2 | O=C(CN1C(=O)C(=O)N(Cc2ccccc2)C1=O)c1ccc(Cl)s1 [1-benzyl-3-(2-(5-chlorothiophen-2-yl)-2-oxoethyl)imidazolidine-2,4,5-trione] |  |  |  | PAM profile assessment (T1R1/T1R3 receptor [3]): PAM activity
3 | COC(=O)[C@H](CC(C)C)NCc1ccccc1.Cl [Benzyl-L-leucine methyl ester hydrochloride] |  |  |  | agonist profile assessment (T1R1/T1R3 receptor [1]): agonist; PAM profile assessment (T1R1/T1R3 receptor [3]): PAM activity
4 | O=C[C@H](O)[C@@H](O)[C@H](O)[C@H](O)CO [D-Glucose, reference compound] |  |  |  | EC50 +buffer (alone) (T1R1/T1R3 receptor [2]; CNBD = Could not be determined): CNBD
5 | O=C(CN1C(=O)C(=O)N(Cc2ccccc2)C1=O)c1ccccc1 [Formula 1, 1-benzyl-3-(2-oxo-2-phenylethyl)imidazolidine-2,4,5-trione] |  | No | No | 
6 | O=C(CN1C(=O)C(=O)N(Cc2ccccc2)C1=O)c1ccc2c(c1)CCC2 [Formula 2, 1-benzyl-3-(2-(2,3-dihydro-1H-inden-5-yl)-2-oxoethyl)imidazolidine-2,4,5-trione] |  | No | No | 
7 | O=C(CN1C(=O)C(=O)N(Cc2ccccc2)C1=O)c1ccc(Br)cc1 [Formula 3, 1-benzyl-3-(2-(4-bromophenyl)-2-oxoethyl)imidazolidine-2,4,5-trione] |  | No | No | 
8 | O=C(CN1C(=O)C(=O)N(Cc2ccccc2)C1=O)c1ccc2c(c1)OCCO2 [Formula 4, 1-benzyl-3-(2-(2,3-dihydrobenzo[b][1,4]dioxin-6-yl)-2-oxoethyl)imidazolidine-2,4,5-trione] |  | No | No | 
9 | COc1ccc(C(=O)CN2C(=O)C(=O)N(Cc3ccccc3)C2=O)c(OC)c1 [Formula 5, 1-benzyl-3-(2-(2,4-dimethoxyphenyl)-2-oxoethyl)imidazolidine-2,4,5-trione] |  | No | No | 
10 | O=C(CN1C(=O)C(=O)N(CCc2cccs2)C1=O)c1ccccc1 [Formula 6, 1-(2-oxo-2-phenylethyl)-3-(2-(thiophen-2-yl)ethyl)imidazolidine-2,4,5-trione] |  | No | No | 
11 | O=C(CN1C(=O)C(=O)N(CCc2cccs2)C1=O)c1ccc2c(c1)OCO2 [Formula 7, 1-(2-(benzo[d][1,3]dioxol-5-yl)-2-oxoethyl)-3-(2-(thiophen-2-yl)ethyl)imidazolidine-2,4,5-trione] |  | No | No | 
12 | O=C(CN1C(=O)C(=O)N(Cc2ccccc2)C1=O)c1ccc2c(c1)OCCCO2 [Formula 8, 1-benzyl-3-(2-(3,4-dihydro-2H-benzo[b][1,4]dioxepin-7-yl)-2-oxoethyl)imidazolidine-2,4,5-trione] |  | No | Weak PAM | PAM profile assessment (T1R1/T1R3 receptor [3]): PAM activity
13 | N#Cc1cccc(NC(=O)CN2C(=O)C(=O)N(Cc3ccccc3)C2=O)c1 [Formula 9, 2-(3-benzyl-2,4,5-trioxoimidazolidin-1-yl)-N-(3-cyanophenyl)acetamide] |  | No | No | 
14 | COc1ccccc1C(=O)CN1C(=O)C(=O)N(Cc2cccs2)C1=O [Formula 10, 1-(2-(2-methoxyphenyl)-2-oxoethyl)-3-(thiophen-2-ylmethyl)imidazolidine-2,4,5-trione] |  | No | No | 
15 | O=C(CN1C(=O)C(=O)N(CCc2cccs2)C1=O)c1cccc2ccccc12 [Formula 11, 1-(2-(naphthalen-1-yl)-2-oxoethyl)-3-(2-(thiophen-2-yl)ethyl)imidazolidine-2,4,5-trione] |  | No | No | 
16 | O=C(CN1C(=O)C(=O)N(Cc2ccccc2)C1=O)c1ccc(Cl)s1 [Formula 12, 1-benzyl-3-(2-(5-chlorothiophen-2-yl)-2-oxoethyl)imidazolidine-2,4,5-trione] |  | No | Weak PAM | 
17 | O=C1C(=O)N(Cc2ccccc2)C(=S)N1Cc1ccccc1 [Formula 13, 1,3-dibenzyl-2-thioxoimidazolidine-4,5-dione] |  | No | No | 
18 | CCCC(CCC)NC(=O)c1ccc2c(c1)OCO2 [Formula 14, N-(heptan-4-yl)benzo[d][1,3]dioxole-5-carboxamide] |  | Yes | Yes | 
19 | COC(=O)[C@H](Cc1ccccc1)NCc1ccccc1.Cl [Formula 15, N-Benzyl-L-phenylalanine methyl ester hydrochloride] |  | Yes | Yes | 

Row | SMILES | Thres +IMP (0.2 mM) (T1R1/T1R3 receptor [2]; [4]) | T1R1/T1R3 agonist (T1R1/T1R3 receptor [1]) | T1R1/T1R3 PAM (T1R1/T1R3 receptor [3]) | further results
20 | COC(=O)[C@@H](Cc1ccccc1)NCc1ccccc1.Cl [Formula 16, N-Benzyl-D-Phenylalanine methyl ester hydrochloride] |  | Yes | Yes | 
21 | COC(=O)[C@H](CC(C)C)NCc1ccccc1.Cl [Formula 18, Benzyl-L-leucine methyl ester hydrochloride] |  | Yes | Yes | 
22 | C[C@H](N)C(=O)O [L-Alanine, reference compound] | 3.0 mM |  |  | 
23 | N[C@@H](CS)C(=O)O [L-Cysteine, cysteine] | 10.0 mM |  |  | Max resp ΔF/F +IMP (0.2 mM) (T1R1/T1R3 receptor [2]; [5]): 0.5800 ΔF/F
24 | N[C@@H](Cc1c[nH]cn1)C(=O)O [L-Histidine, L-histidine] | 10.0 mM |  |  | 
25 | N[C@@H](Cc1ccccc1)C(=O)O [L-Phenylalanine, reference compound] | 0.1 mM |  |  | Max resp ΔF/F +IMP (0.2 mM) (T1R1/T1R3 receptor [2]; [5]): 0.5900 ΔF/F
26 | O=C(O)[C@@H]1CCCN1 [L-Proline, proline] |  |  |  | EC50 +IMP (0.2 mM) (T1R1/T1R3 receptor [2]): CNBD; Max resp % of Ala +IMP (0.2 mM) (T1R1/T1R3 receptor [2]): CNBD; Max resp ΔF/F +IMP (0.2 mM) (T1R1/T1R3 receptor [2]): CNBD; Thres +IMP (0.2 mM) (T1R1/T1R3 receptor [2]): CNBD
27 | N[C@@H](CO)C(=O)O [L-Serine, serine] | 3.0 mM |  |  | 
28 | N[C@@H](Cc1c[nH]c2ccccc12)C(=O)O [L-Tryptophan, tryptophan] | 0.1 mM |  |  | 
29 | N[C@@H](Cc1ccc(O)cc1)C(=O)O [L-Tyrosine, tyrosine] | 3.0 mM |  |  | 
30 | N[C@@H](CCC(=O)O)C(=O)[O-].[Na+] [MSG (Glutamic acid sodium salt), monosodium glutamate] | CNBD |  |  | EC50 +IMP (0.2 mM) (T1R1/T1R3 receptor [2]; [5]): CNBD; Max resp ΔF/F +IMP (0.2 mM) (T1R1/T1R3 receptor [2]; [5]): CNBD; Max resp % of Ala +IMP (0.2 mM) (T1R1/T1R3 receptor [2]; in the presence of 0.2 mM IMP, relative to Ala, CNBD = Could not be determined): CNBD
31 | O=C(NCCCCNC(=O)c1cccnc1)c1cccnc1 [N,N′-(butane-1,4-diyl)dinicotinamide] | 0.1 mM |  |  | EC50 +Alanine (20 mM) (T1R1/T1R3 receptor [2]): CNBD; EC50 +buffer (alone) (T1R1/T1R3 receptor [2]; CNBD = Could not be determined): CNBD
32 | O=C(NCCc1c[nH]c2ccccc12)c1cccnc1 [N-(2-(1H-indol-3-yl)ethyl)nicotinamide, N-(2-(1H-Indol-3-yl)ethyl)nicotinamide] | 0.003 mM |  |  | 
33 | O=C(NCCc1ccccc1)c1ccccc1 [N-phenethylbenzamide] | 0.01 mM |  |  | Max resp ΔF/F +IMP (0.2 mM) (T1R1/T1R3 receptor [2]; [5]): 0.9800 ΔF/F
34 | O=C(NCCc1ccccc1)c1ccc2c(c1)OCO2 [N-phenethylbenzo[d][1,3]dioxole-5-carboxamide] | 0.01 mM |  |  | EC50 +Alanine (20 mM) (T1R1/T1R3 receptor [2]): CNBD
35 | O=C(NCCc1ccccc1)c1cccnc1 [N-phenethylnicotinamide] | 0.03 mM |  |  | 
36 | C=C[C@H]1C[N@@]2CC[C@H]1C[C@H]2[C@H](O)c1ccnc2ccc(OC)cc12 [Quinine HCL, reference compound] |  |  |  | EC50 +buffer (alone) (T1R1/T1R3 receptor [2]; CNBD = Could not be determined): CNBD
37 | CCOC(=O)NC(=O)C(c1ccccc1)c1ccccc1 [Ro 01-6128, reference compound] | 0.01 mM |  |  | Thres +Alanine (20 mM) (T1R1/T1R3 receptor [2]): 0.3 mM; Activity (T1R1/T1R3 receptor [2]; overall call for modulation of T1R1/T1R3: active or N/A (= Not active)): active
